Test results reported in patent US10888622B2, “Nanocomplexes of modified peptides or proteins” (Trustees of Tufts College, priority 2013, dated 2021).

System: B16F10 cancer cells
Assay: In vitro protein transfection: delivery of RNase A into B16F10 cancer cells, cell viability by Alamar Blue assay
Type: cell-based
Description: Compositions A-D and Comparative Compositions A′-D′ and D″ were tested for delivery of RNase A into B16F10 cancer cells.
B16F10 cancer cells were cultured in Dulbecco's Modified Eagle Medium supplemented with 10% Fetal Bovine Serum and 1% penicillin/streptomycin at 37° C. in the presence of 5% CO2. For the protein transfection assay described below, cells were seeded in 96-well plates at a density of 10,000 cells per well a day prior to transfection.
To evaluate protein delivery efficiency, Compositions A-D and Comparative Compositions A′-D′ and D″ described in Examples 1-4 were added to B16F10 cancer cells and incubated at 37° C. for 24 hours. The protein concentration was 3.3 μg/mL in PBS. Compound EC16-63, dissolved in the same volume of PBS, was used as a control. The cell viability was determined by the Alamar Blue assay after 24 hours of incubation. All transfection studies were performed in quadruplicate.

SMILES: CCCCCCCCCCCCCCC(O)CN(C)CCCN(C)CC(O)CCCCCCCCCCCCCC (centres unmarked) [Compound EC16-63]
- cell viability (lipid-like compound alone, control) (24 hours incubation, compound dissolved in same volume of PBS, no protein): 90%
- cytotoxicity (in words) (lipid-like compound alone, 24 hours): low cytotoxicity
